Measurements as given in the NIST ThermoML archive (doi:10.1016/j.jct.2015.08.033).

Experiment: mn = molality of the nth substance listed, in mol/kg
Settings: 100 kPa, Liquid; for speed of sound: Frequency=3 MHz, Sing-around technique in a fixed-path interferometer; for mass density: Vibrating tube method

O=S(=O)([O-])C(F)(F)F.O=S(=O)([O-])C(F)(F)F.[Mg+2] [magnesium triflate] + CC(=O)N(C)C
Settings	mass density, 298.15 K [kg/m3]	mass density, 303.15 K [kg/m3]	mass density, 308.15 K [kg/m3]	mass density, 313.15 K [kg/m3]	mass density, 318.15 K [kg/m3]	speed of sound, 298.15 K [m/s]	speed of sound, 303.15 K [m/s]	speed of sound, 308.15 K [m/s]	speed of sound, 313.15 K [m/s]	speed of sound, 318.15 K [m/s]
m1 = 0.009142	938.272	933.667	929.056	924.433	919.8	1456.4	1436.7	1416.9	1397.2	1377.7
m1 = 0.01469	939.459	934.86	930.249	925.632	921.007	1456.7	1436.9	1417.2	1397.6	1378.1
m1 = 0.02251	941.134	936.55	931.947	927.333	922.714	1457	1437.3	1417.7	1398.1	1378.6
m1 = 0.03194	943.119	938.53	933.932	929.324	924.71	1457.4	1437.8	1418.2	1398.6	1379.2
m1 = 0.04489	945.817	941.246	936.655	932.054	927.445	1457.9	1438.3	1418.8	1399.3	1379.9
m1 = 0.05714	948.308	943.72	939.134	934.538	929.945	1458.3	1438.8	1419.3	1399.9	1380.6
m1 = 0.07138	951.266	946.705	942.126	937.537	932.941	1458.9	1439.4	1419.9	1400.6	1381.3
m1 = 0.08889	954.777	950.211	945.637	941.054	936.462	1459.5	1440.1	1420.7	1401	1382.1
m1 = 0.1071	958.463	953.905	949.338	944.772	940.1	1460	1440.7	1421.3	1401.9	1382.8
m1 = 0.1341	963.77	959.1	954.5	950	945.4	1460.7	1441.5	1422.3	1403.2	1384.2

O=S(=O)([O-])C(F)(F)F.O=S(=O)([O-])C(F)(F)F.[Mg+2] [magnesium triflate] + CN(C)C=O
Settings	mass density, 298.15 K [kg/m3]	mass density, 303.15 K [kg/m3]	mass density, 308.15 K [kg/m3]	mass density, 313.15 K [kg/m3]	mass density, 318.15 K [kg/m3]	speed of sound, 298.15 K [m/s]	speed of sound, 303.15 K [m/s]	speed of sound, 308.15 K [m/s]	speed of sound, 313.15 K [m/s]	speed of sound, 318.15 K [m/s]
m1 = 0.01036	946.019	941.245	936.47	931.673	926.87	–	–	–	–	–
m1 = 0.01706	947.369	942.601	937.828	933.038	928.233	1457.4	1438.2	1418.9	1399.7	1380.5
m1 = 0.0217	948.297	943.537	938.762	933.973	929.172	1457.3	1438.2	1418.9	1399.8	1380.7
m1 = 0.03662	951.268	946.512	941.741	936.956	932.159	1457.3	1438.2	1419.1	1400	1380.9
m1 = 0.0512	954.144	949.392	944.627	939.848	935.055	1457.3	1438.2	1419.1	1400.1	1381.1
m1 = 0.06466	956.788	952.038	947.275	942.499	937.711	1457.2	1438.2	1419.1	1400.2	1381.2
m1 = 0.082	960.152	955.393	950.635	945.853	941.072	1457.1	1438.1	1419.1	1400.2	1381.3
m1 = 0.102	964.032	959.291	954.537	949.768	944.991	1456.9	1438	1419.1	1400.2	1381.5
m1 = 0.1234	968.107	963.366	958.615	953.853	949.079	1456.7	1437.9	1419	1400.3	1381.5
m1 = 0.1544	974.074	969.343	964.6	959.846	955.083	1456.4	1437.6	1418.9	1400.2	1381.6
